According to patent US20250263370A1 (Tay Therapeutics Limited, priority 2022, published 2025):
Where “and” joins values, the source holds several entries; their conditions need not be identical. Equal values may be shown once. Read-outs that look alike come from different tables or passages of the source.

Tests used:
CXCL10 = CXCL10 levels by ELISA in IFN-γ stimulated human peripheral blood mononuclear cells; format: cell-based; conditions: human PBMC
Description: The impact of Examples 23, 80, and 101 on IL-17A, IL-22, and CXCL10 levels was analyzed in cryopreserved human peripheral blood mononuclear cells (PBMC) by ELISA. […] For IL-17A and IL-22 assays, Examples 23, 80, and 101 were serially diluted from 10 mM in DMSO and further diluted in assay media to 100× the required final concentration, of which, 2 μL was added per well to a round-bottom 96-well tissue culture plate where the final DMSO concentration per well was 0.1%. CD2, CD3, and CD28 antibody-coated beads from the T-cell activation/expansion kit (Miltenyi Biotec) were added to the PBMC at a bead-to-cell ratio of 1:2.
The mixture of PBMCs and beads were seeded into the wells of the round-bottom 96-well plate at a concentration of 2×10^5 cells/well in a total volume of 200 μL. The cells were cultured for 72 hours at 37° C. and 5% CO2 and then supernatants were collected and IL-17A and IL-22 levels were measured by ELISA. For the CXCL10 assay, Examples 23, 80, and 101 were serially diluted from 10 mM in DMSO and further diluted in assay media to 100× the required final concentration, of which 2 μL was added per well to a 96-well tissue culture plate. The final compound concentration ranged from 30,000 nM to 0.005 nM and the final DMSO concentration per well was 0.3%. PBMCs were seeded at approximately 2×10^5 cells/well in the wells of the 96-well tissue culture plate in a total volume of 190 μL. The plate was incubated for 1 hour at 37° C. and 5% CO2. The cells were then stimulated with IFN-γ (15 ng/mL final concentration) in a volume of 10 μL. The cells were then cultured for 24 hours at 37° C. and 5% CO2. The supernatant was collected and CXCL10 levels were measured by ELISA.

[1] = tested on: Col1a1, TGF-b1, MCP-1, IL-1b, IL-6, IL-17, TNF-a, and Timp1; experiment: Tissue biomarker mRNA by RT-PCR in ligated kidney of UUO rats; format: in vivo, rat
From the text: (§1) Serum for blood biochemistry analysis was collected into centrifuge tubes without coagulant four hours after final dosing. Blood plasma samples from group 3 was collected into tubes with K2EDTA four hours after final dosing. At the conclusion of the study (end of the 14-day period), animals were euthanized. Kidney tissue was collected four hours after final dosing. Ligated side kidney was divided into three copies ⅓ fix into 10% formalin for H&E analysis, ⅓ into RNA for PCR analysis of tissue biomarkers Col1a1, TGF-b1, MCP-1, IL-1b, IL-6, IL-17, TNF-a, and Timp1, and ⅓ for hydroxyproline assay analyzed by ELISA. RNA was extracted from tissue using the RNeasy mini kit (Qiagen). RNA concentration was measured using a NanoDrop One Spectrophotometer (ThermoFisher) and converted to cDNA using a High-Capacity RNA-to-cDNA kit (Invitrogen). RT-PCR was performed to measure levels of mRNA of different targets using TaqMan® Gene Expression Master Mix and TaqMan® probe/primer sets on a QuantStudio 6, Real-Time PCR System (ThermoFisher). Fold change in target gene expression was determined using the ΔΔCt method.

[2] = Plasma concentration of Example 101 in UUO rats by LC-MS/MS; format: in vivo, rat; conditions: for concentration at 4 h: rat, plasma, po, 30 mg/kg
From the text: as §1
Samples were analyzed on a Raptor Biphenyl 2.7 μm 50×2.1 mm column. Solution A in the mobile phase was 95% water (0.1% formic acid) and solution B was 95% acetonitrile in water (0.1% formic acid), injection volume was 20 μL, and flow rate was 0.5 mL/min.
To prepare samples for analysis, serial concentrations were prepared by diluting the stock solution of analyte with a 50% acetonitrile in water solution. 5 μL working solutions (5, 10, 20, 50, 100, 500, 1000, 5000, and 10000 ng/mL) were added to 50 μL of the blank SD rat plasma to achieve calibration standards of −0.5 to 1000 ng/mL (0.5, 1, 2, 5, 10, 50, 100, 500, and 1000 ng/mL) in a total volume of 55 μL. […]
55 μL of standards, 55 μL of QC samples and 55 μL of unknown samples (50 μL of unknown rat plasma with 5 μL of blank solution) were added to 200 μL of acetonitrile containing IS mixture for precipitating protein respectively. […] 20 μL of diluted supernatant was injected into the LC/MS/MS system for quantitative analysis.

BRD4 BD2 = BRD4 BD2 (Homo sapiens (Human), UniProt O60885); experiment: NanoBRET bromodomain assay, NanoLuc-BRD4-BD2 fusion in HEK293 cells;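 also: tracer displacement BRET read in transfected cells after 2 h compound exposure at 37 °C, signal in milliBRET units corrected against no-tracer background wells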
Description: HEK293 cells were transfected using NanoLuc-BRD4-BD1 or NanoLuc-BRD4-BD2 fusion vectors and incubated at 37° C. in an atmosphere of 5% CO2 for 20-24 hours. The transfected cells were then dispensed into 96-well plates using 90 μl cell suspension per well containing 2×10^5 cells/mL in Opti-MEM and 1× final concentration of tracer. 90 μL per well of cell suspension without tracer was also dispensed into at least 3 wells as “No tracer control samples” for background correction. Serially diluted test compounds were prepared at 1000× concentration in DMSO and further diluted to 10× concentration in Opti-MEM. […] Plates were then incubated at 37° C. +5% 002 incubator for 2 hours. […] Donor emission (450 nm) and acceptor emission (610 nm) were measured using PHERAstar (BMG LabTech). For data analysis, the raw BRET ratio was generated and converted to milliBRET units with background correction using the formula: [(Acceptorsample/Donorsample−(Acceptorno tracer control/Donorno tracer control)]×1000. The mBU data was plotted as a function of compound concentration and IC50s for BRET assay were determined by nonlinear regression analysis of concentration response curves using the Collaborative Drug Discovery Vault software. The fold-selectivity was calculated by dividing the IC50 for BRD4 BD1 by the IC50 for BRD4 BD2.

[3] = Test Subject 1, read-out: CXCL10 IC50
[4] = Test Subject 2, read-out: CXCL10 IC50
[5] = Test Subject 3, read-out: CXCL10 IC50
[6] = mean of test subjects, read-out: CXCL10 IC50 Mean

CNC(=O)c1[nH]c(C(=O)NC2CCC2)cc1O[C@@H](C)c1ccccc1 (stereo in doubt) [Example 101, N^5-cyclobutyl-N^2-methyl-3-(1-phenylethoxy)-1H-pyrrole-2,5-dicarboxamide]
selectivity to induction of CXCL10 relative to IL-17A and IL-22 (CXCL10): showed selectivity to induction of CXCL10 relative to IL-17A and IL-22
IC50 for CXCL-10 relative to GSK620 (CXCL10; IFN-γ, 24 hours): substantially lower IC50
IC50 (CXCL10; [3]): > 30 µM
IC50 (CXCL10; [4]): > 30 µM
IC50 (CXCL10; [5]): > 30 µM
IC50 (CXCL10; [6]): > 30 µM
Col1a1 tissue RNA level relative to UUO + vehicle ([1]; 30 mg/kg BID, kidney): reduced levels
IL-1b tissue RNA level relative to UUO + vehicle ([1]; 30 mg/kg BID, kidney): reduced levels
IL-6 tissue RNA level relative to UUO + vehicle ([1]; 30 mg/kg BID, kidney): reduced levels
MCP-1 tissue RNA level relative to UUO + vehicle ([1]; 30 mg/kg BID, kidney): reduced levels
TGF-b1 tissue RNA level relative to UUO + vehicle ([1]; 30 mg/kg BID, kidney): reduced levels
Timp1 tissue RNA level relative to UUO + vehicle ([1]; 30 mg/kg BID, kidney): reduced levels
expression of IL-17 relative to UUO + vehicle ([1]; 30 mg/kg BID, kidney): limited effect
expression of TNF-α relative to UUO + vehicle ([1]; 30 mg/kg BID, kidney): limited effect
Col1a1 RNA level, Normalized Fold Change ([1]; 30 mg/kg, individual animals): 0.67 and 0.33 and 0.21 and 0.55 and 0.28 and 0.41 and 0.86 and 0.69
IL-1b RNA level, Normalized Fold Change ([1]; 30 mg/kg, individual animals): 0.43 and 0.18 and 0.29 and 0.69 and 0.55 and 0.27 and 0.56 and 0.67
IL-6 RNA level, Normalized Fold Change ([1]; 30 mg/kg, individual animals): 0.06 and 0.05 and 0.03 and 0.33 and 0.12 (2×) and 0.26 and 0.07
IL-17 RNA level, Normalized Fold Change ([1]; 30 mg/kg, individual animals): 0.79 and 0.22 and 0.24 and 2.09 and 1.81 and 0.54 and 0.70 and 0.94
MCP-1 RNA level, Normalized Fold Change ([1]; 30 mg/kg, individual animals): 0.34 and 0.26 and 0.32 and 0.53 and 0.42 and 0.27 and 0.68 and 0.61
TGF-b1 RNA level, Normalized Fold Change ([1]; 30 mg/kg, individual animals): 0.63 and 0.44 and 0.35 and 0.81 and 0.52 and 0.50 and 0.90 and 0.85
TNF-a RNA level, Normalized Fold Change ([1]; 30 mg/kg, individual animals): 0.90 and 0.48 and 0.32 and 1.53 and 1.00 and 0.69 and 0.94 and 1.55
Timp1 RNA level, Normalized Fold Change ([1]; 30 mg/kg, individual animals): 0.65 and 0.41 and 0.44 and 0.71 and 0.54 and 0.56 and 0.94 and 0.97
Col1a1 RNA level, Normalized Fold Change (Mean + SEM) ([1]; group mean, N 8): 0.50
IL-1b RNA level, Normalized Fold Change (Mean + SEM) ([1]; group mean, N 8): 0.46
IL-6 RNA level, Normalized Fold Change (Mean + SEM) ([1]; group mean, N 8): 0.13
IL-17 RNA level, Normalized Fold Change (Mean + SEM) ([1]; group mean, N 8): 0.92
MCP-1 RNA level, Normalized Fold Change (Mean + SEM) ([1]; group mean, N 8): 0.43
TGF-b1 RNA level, Normalized Fold Change (Mean + SEM) ([1]; group mean, N 8): 0.63
TNF-a RNA level, Normalized Fold Change (Mean + SEM) ([1]; group mean, N 8): 0.93
Timp1 RNA level, Normalized Fold Change (Mean + SEM) ([1]; group mean, N 8): 0.65
Plasma concentration of Example 101 ([2]; male SD rats, oral, 4 h after final treatment, individual test subjects): 485 ng/mL and 959 ng/mL and 760 ng/mL and 859 ng/mL and 906 ng/mL and 1160 ng/mL and 665 ng/mL and 941 ng/mL
concentration at 4 h ([2]; male, SD, Mean plasma concentration of Example 101, male SD rats, oral, 4 h after final treatment, mean of 8 subjects): 846 ng/mL
concentration at 4 h ([2]; UUO rats, 30 mg/kg oral, four hours after final treatment, read-out: mean plasma concentration): 846 ng/mL
selectivity for BDII relative to GSK620 (BRD4 BD2): more selective than GSK620 for BDII by greater than about two orders of magnitude
IC50 (BRD4 BD2; BRD4 BD2 (IC50), NanoBRET, HEK293 cells, top concentration 10 μM): < 0.05 µM
Fold selectivity (BRD4 BD2; IC50 for BRD4 BD1 divided by IC50 for BRD4 BD2, qualitative if an IC50 is at the upper limit): XXX (Fold >200)

CNC(=O)c1cc(C(=O)NC2CC2)cn(Cc2ccccc2)c1=O [GSK620]
IC50 (CXCL10; [3]): > 30 µM
IC50 (CXCL10; [4]): > 30 µM
IC50 (CXCL10; [5]): > 30 µM
IC50 (CXCL10; [6]): > 30 µM
